Test: Solubility of the racemic mixture in methanol
Assay type: physicochemical

Structure (SMILES): O=C([O-])C(O)c1ccccc1Cl.[Na+] (racemic) [Sodium 2-chloromandelate]
- difference in solubility of the racemic mixture between 40° C. and 20° C. (40° C. vs 20° C., in absolute value, solvent of Example 2 is methanol): 0.85%
- Solubility of the racemic mixture in the methanol at reflux (methanol at reflux): 23%

Reference: US8907106B2, “Process for the resolution of enantiomers by preferential evaporative crystallization” (Universite de Rouen, priority 2009, dated 2014)
